This passage reports inhibition in vivo and inhibition results from patent US9062061B2, “Compound having PARP inhibitory activity” (SANTEN PHARMACEUTICAL CO., LTD., priority 2011, dated 2015).

The subject of test [1] is rat N-methyl-N-nitrosourea (MNU)-induced retinal degeneration model. In words: Retinal degeneration inhibitory activity in rat MNU-induced model (retinal volume by OCT). In kind it is in vivo. Particulars: po, 168 h, MNU 50 mg/kg i.p., test compound 10 mg/kg orally once 30 minutes before MNU, seventh day, Brown Norway male rats, read-out: Retinal volume reduction inhibition rate (%). How it is done:
For examining influence of the present compound on the retinal degeneration, retinal degeneration inhibitory activity of test compound was evaluated, using a rat N-methyl-N-nitrosourea (hereinafter, “MNU”)-induced retinal degeneration model. The rat MNU-induced retinal degeneration model is a model animal in which cell death of retinal photoreceptor cell is induced by administration of MNU which is a DNA alkylation agent, and is generally used as a model animal for chorioretinal degenerative diseases such as retinitis pigmentosa (Exp. Eye. Res., 84(2), 285-292 (2007)).
By the previous day of MNU administration, retinal volumes of 8-week-old Brown Norway male rats were measured by using optical coherence tomography (OCT) (product of Carl Zeiss, model number: STRATUS OCT Model 3000). An MNU administration liquid was intraperitoneally administered to the rats at a dose of 50 to 60 mg/kg, and on the seventh day after administration, retinal volumes were measured by using OCT. The normal control group underwent no treatment, and retinal volumes were measured on the same day as the MNU administration group. The number of examples in each group was 4 rats (8 eyes).
(Administration Method) • Test compound-administered group: A solution of each test compound suspended in 1% (w/v) methylcellulose aqueous solution was orally administered once 30 minutes before MNU administration at a dose of 1 to 30 mg/kg. • Normal control group and vehicle-administered group: 1% (w/v) methylcellulose aqueous solution was orally administered once 30 minutes before MNU administration.
According to the following Formula 2, retinal volume reduction inhibition rate (%) was calculated. Retinal volume reduction inhibition rate(%)=(RVX-pre/RVX-post−RVB-pre/RVB-post)/(RVA-pre/RVA-post−RVB-pre/RVB-post)×100 [Formula 2]
RVA-pre: retinal volume before MNU administration of normal control group (mm^3)
RVA-post: retinal volume on the seventh day after MNU administration of normal control group (mm^3)
RVB-pre: retinal volume before MNU administration of vehicle-administered group (mm^3)
RVB-post: retinal volume on the seventh day after MNU administration of vehicle-administered group (mm^3)
RVX-pre: retinal volume before MNU administration of test compound-administered group (mm^3)
RVX-post: retinal volume on the seventh day after MNU administration of test compound-administered group (mm^3)

A further test concerns the target T1, human recombinant PARP1 (Homo sapiens, UniProt P09874).
T1 construct: purchased Trevigen 4677-096-K
The test is described as follows: PARP inhibitory activity measurement test (Universal Colorimetric PARP Assay kit, Trevigen). In kind it is biochemical. Particulars: compound concentration: 10 μM, read-out: PARP1 inhibition rate (%). As for the experimental part:
For evaluating PARP inhibitory activity of the present compound, inhibitory activity of each test compound against human recombinant PARP 1 was measured using Universal Colorimetric PARP Assay kit with Histone-Coated Strip Wells (Cat No.: 4677-096-K) available from Trevigen. The test was conducted according to the procedure in the instruction attached to this kit. The concrete operation will be described below.
After dissolving the test compound in dimethyl sulfoxide, the solution was diluted with a PARP buffer attached to the kit to prepare a 50 μM test compound solution.
In each well of a histone-coated 96-well plate, 10 μL of the test compound solution (50 μM), 15 μL of human recombinant PARP1 (33.3 Unit/mL) and 25 μL of PARP cocktail (containing activated DNA and biotinated NAD) were added, and incubated at room temperature for 1 hour (final reaction amount: 50 μL). Each well was washed twice with 200 μL of 0.1% Triton-X-containing Dulbecco's phosphate buffer, and further washed twice with 200 μL of Dulbecco's phosphate buffer, and then 50 μL of Strep-HRP was added, followed by incubation at room temperature for 1 hour. Each well was washed twice with 200 μL of 0.1% Triton-X-containing Dulbecco's phosphate buffer, and further washed twice with 200 μL of Dulbecco's phosphate buffer, and then 50 μL of TACS-Sapphire coloriometric substrate was added, followed by incubation at room temperature for 15 minutes. After stopping the reaction by adding 50 μL of 0.2 M HCl, absorbance at 450 nm (Abs 450) was measured by a microplate reader. The number of examples in each group was 1 to 2.
Using a well into which dimethyl sulfoxide and a PARP buffer were added in place of the test compound solution and human recombinant PARP1, the above operation was conducted as a negative control.
Using a well into which a PARP buffer containing dimethyl sulfoxide was added in place of the test compound solution, the above operation was conducted as a positive control.
PARP1 inhibition rate (%) was calculated according to the following Formula 1. PARP1 inhibition rate(%)=(AbsB−AbsX)/(AbsB−AbsA)×100 [Formula 1]
AbsA: absorbance of negative control (Abs 450)
AbsB: absorbance of positive control (Abs 450)
AbsX: absorbance of test compound-treated group (Abs 450)

Counter-ions that a name gives are not always drawn.

T1 sequence (P09874 whole entry): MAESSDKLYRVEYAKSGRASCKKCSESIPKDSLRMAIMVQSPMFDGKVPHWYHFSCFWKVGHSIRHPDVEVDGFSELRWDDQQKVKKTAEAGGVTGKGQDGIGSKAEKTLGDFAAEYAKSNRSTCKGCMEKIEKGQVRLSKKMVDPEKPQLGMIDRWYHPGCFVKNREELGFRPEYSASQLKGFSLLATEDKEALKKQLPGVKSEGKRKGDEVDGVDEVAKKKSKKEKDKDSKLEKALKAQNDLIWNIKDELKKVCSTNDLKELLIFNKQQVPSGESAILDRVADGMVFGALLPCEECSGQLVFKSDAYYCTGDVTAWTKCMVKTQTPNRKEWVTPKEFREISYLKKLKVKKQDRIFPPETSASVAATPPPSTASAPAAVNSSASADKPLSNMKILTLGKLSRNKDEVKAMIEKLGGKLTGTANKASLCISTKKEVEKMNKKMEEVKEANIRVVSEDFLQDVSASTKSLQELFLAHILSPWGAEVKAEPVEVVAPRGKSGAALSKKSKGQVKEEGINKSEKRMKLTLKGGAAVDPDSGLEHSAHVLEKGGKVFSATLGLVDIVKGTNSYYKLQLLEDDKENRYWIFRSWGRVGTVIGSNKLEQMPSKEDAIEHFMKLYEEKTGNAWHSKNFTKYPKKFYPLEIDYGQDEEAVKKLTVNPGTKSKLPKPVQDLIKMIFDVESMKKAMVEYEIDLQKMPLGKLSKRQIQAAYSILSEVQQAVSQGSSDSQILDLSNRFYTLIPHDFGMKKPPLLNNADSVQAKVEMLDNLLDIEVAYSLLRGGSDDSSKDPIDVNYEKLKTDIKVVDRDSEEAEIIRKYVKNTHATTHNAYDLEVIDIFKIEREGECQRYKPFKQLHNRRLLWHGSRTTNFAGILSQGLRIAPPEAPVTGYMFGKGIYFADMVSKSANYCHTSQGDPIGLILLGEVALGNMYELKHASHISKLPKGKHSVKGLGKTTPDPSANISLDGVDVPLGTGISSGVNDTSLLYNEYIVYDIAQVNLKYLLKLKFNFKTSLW

One may read the inhibition as the drop in the measured response relative to a control, in per cent. Turning to `O=c1[nH]c2cc(CN3CCC(c4ccccc4)CC3)cn2c2ccccc12` [Compound 2-5, 2-(4-Phenylpiperidin-1-ylmethyl)pyrrolo[1,2-a]quinazolin-5(4H)-one], the inhibition in vivo at 10 mg/kg in test [1] turned out to be 16%. At human recombinant PARP1, the inhibition at 10 µM is 96%. Taken in the same sequence, the figures for `O=c1[nH]c2cc(CN3CC=C(c4ccc(Cl)cc4)CC3)cn2c2ccccc12` [Compound 2-7, 2-[4-(4-Chlorophenyl)-1,2,3,6-tetrahydropyridine-1-ylmethyl]pyrrolo[1,2-a]quinazolin-5(4H)-one] were 69% and 99%.

`O=c1[nH]c2cc(CN3CCN(c4ccc(Br)cc4)CC3)cn2c2ccccc12` [Compound 2-20, 2-[4-(4-Bromophenyl)piperazin-1-ylmethyl]pyrrolo[1,2-a]quinazolin-5(4H)-one]: the inhibition at 10 µM on human recombinant PARP1 was 90%. Still for that read-out and setting: the same measure for `O=c1[nH]c2cc(CN3CCc4ccccc4C3)cn2c2ccccc12` [Compound 2-21, 2-(1,2,3,4-Tetrahydroisoquinolin-2(1H)-ylmethyl)pyrrolo[1,2-a]quinazolin-5(4H)-one]: 65%; for `CN(C)C1CCN(Cc2cc3[nH]c(=O)c4ccccc4n3c2)CC1` [Compound 2-22, 2-(4-Dimethylaminopiperidin-1-ylmethyl)pyrrolo[1,2-a]quinazolin-5(4H)-one]: 97%.

`O=c1[nH]c2cc(CN3CCN(c4ccncc4)CC3)cn2c2ccccc12` [Compound 2-23, 2-[4-(Pyridin-4-yl)piperazin-1-ylmethyl]pyrrolo[1,2-a]quinazolin-5(4H)-one]: the inhibition at 10 µM on human recombinant PARP1 came to 100%. For `CC1CN(c2ccc(F)cc2)CCN1Cc1cc2[nH]c(=O)c3ccccc3n2c1` (centres unmarked) [Compound 2-24, 2-[4-(4-Fluorophenyl)-2-methylpiperazin-1-ylmethyl]pyrrolo[1,2-a]quinazolin-5(4H)-one], at human recombinant PARP1, the inhibition at 10 µM was 99%. Same read-out and setting: to `COc1ccccc1N1CCN(Cc2cc3[nH]c(=O)c4ccccc4n3c2)CC1` [Compound 2-25, 2-[4-(2-Methoxyphenyl)piperazin-1-ylmethyl]pyrrolo[1,2-a]quinazolin-5(4H)-one] belongs 100%; to `COc1cccc(N2CCN(Cc3cc4[nH]c(=O)c5ccccc5n4c3)CC2)c1` [Compound 2-26, 2-[4-(3-Methoxyphenyl)piperazin-1-ylmethyl]pyrrolo[1,2-a]quinazolin-5(4H)-one], 78%.

For `O=c1[nH]c2cc(CN3CCN(C4CCCCC4)CC3)cn2c2ccccc12` [Compound 2-27, 2-(4-Cyclohexylpiperazin-1-ylmethyl)pyrrolo[1,2-a]quinazolin-5(4H)-one], on human recombinant PARP1, the inhibition at 10 µM was determined as 99%. Consider `O=c1[nH]c2cc(CN3CCN(CC4CC4)CC3)cn2c2ccccc12` [Compound 2-28, 2-(4-Cyclopropylmethylpiperazin-1-ylmethyl)pyrrolo[1,2-a]quinazolin-5(4H)-one], for which the inhibition at 10 µM at human recombinant PARP1 stood at 99%.

For the molecule `O=c1[nH]c2cc(CN3CCN(c4ccc(C(F)(F)F)cc4)CC3)cn2c2ccccc12` [Compound 2-29, 2-[4-(4-Trifluoromethylphenyl)piperazin-1-ylmethyl]pyrrolo[1,2-a]quinazolin-5(4H)-one], on human recombinant PARP1, the inhibition at 10 µM was determined as 40%. For the molecule `O=c1[nH]c2cc(CN3CCCC(c4ccccc4)C3)cn2c2ccccc12` (centres unmarked) [Compound 2-31, 2-(3-Phenylpiperidin-1-ylmethyl)pyrrolo[1,2-a]quinazolin-5(4H)-one], on human recombinant PARP1, the inhibition at 10 µM is 66%. The same measure, in the same setting: to `Cc1cccc(N2CCN(Cc3cc4[nH]c(=O)c5ccccc5n4c3)CC2)c1` [Compound 2-32, 2-[4-(3-Methylphenyl)piperazin-1-ylmethyl]pyrrolo[1,2-a]quinazolin-5(4H)-one] belongs 97%. For `O=c1[nH]c2cc(CN3CCC(N4CCCCC4)CC3)cn2c2ccccc12` [Compound 2-33, 2-[4-(Piperidin-1-yl)piperidin-1-ylmethyl]pyrrolo[1,2-a]quinazolin-5(4H)-one], the inhibition at 10 µM on human recombinant PARP1 was found to be 96%. The same measure, in the same setting: to `O=c1[nH]c2cc(CN3CCCC3)cn2c2ccccc12` [Compound 2-34, 2-(Pyrrolidin-1-ylmethyl)pyrrolo[1,2-a]quinazolin-5(4H)-one] belongs 96%; to `O=c1[nH]c2cc(CN3CCN(c4nccc5occc45)CC3)cn2c2ccccc12` [Compound 2-36, 2-[4-(Furo[3,2-c]pyridin-4-yl)piperazin-1-ylmethyl]pyrrolo[1,2-a]quinazolin-5(4H)-one], 82%.

For `CC(C)Oc1ccc(N2CCN(Cc3cc4[nH]c(=O)c5ccccc5n4c3)CC2)cc1` [Compound 2-38, 2-[4-(4-Isopropoxyphenyl)piperazin-1-ylmethyl]pyrrolo[1,2-a]quinazolin-5(4H)-one], the inhibition at 10 µM at human recombinant PARP1 was 98%. For the molecule `O=c1[nH]c2cc(CN3CCN(c4ccc(F)cc4)CC3)cn2c2ccsc12` [Compound 2-41, 7-[4-(4-Fluorophenyl)piperazin-1-ylmethyl]pyrrolo[1,2-a]thieno[2,3-e]pyrimidin-4(5H)-one], at human recombinant PARP1, the inhibition at 10 µM was 100%. The same measure, in the same setting: the same measure for `O=c1[nH]c2cc(CN3CCN(c4ccc(Cl)cc4)CC3)cn2c2ccsc12` [Compound 2-42, 7-[4-(4-Chlorophenyl)piperazin-1-ylmethyl]pyrrolo[1,2-a]thieno[2,3-e]pyrimidin-4(5H)-one]: 100%; for `O=c1[nH]c2cc(CN3CCCC3)cn2c2ccsc12` [Compound 2-43, 7-(Pyrrolidin-1-ylmethyl)pyrrolo[1,2-a]thieno[2,3-e]pyrimidin-4(5H)-one]: 91%. For the molecule `CN(C)CCOc1cc(F)ccc1N1CCN(Cc2cc3[nH]c(=O)c4ccccc4n3c2)CC1` [Compound 2-46, 2-[4-[2-(2-Dimethylaminoethoxy)-4-fluorophenyl]piperazin-1-ylmethyl]pyrrolo[1,2-a]quinazolin-5(4H)-one], the inhibition at 10 µM on human recombinant PARP1 came to 85%. Take `O=c1[nH]c2cc(CN3CCC(N4CCOCC4)CC3)cn2c2ccccc12` [Compound 2-47, 2-[4-(Morpholin-4-yl)piperidin-1-ylmethyl]pyrrolo[1,2-a]quinazolin-5(4H)-one]: the inhibition at 10 µM at human recombinant PARP1 is 99%. On the same count and under the same terms, to `O=c1[nH]c2cc(CN3CCN(c4ccc(O)cc4)CC3)cn2c2ccccc12` [Compound 3-1, 2-[4-(4-Hydroxyphenyl)piperazin-1-ylmethyl]pyrrolo[1,2-a]quinazolin-5(4H)-one] belongs 100%. The same measure, in the same setting: the same measure for `O=C(c1cc2[nH]c(=O)c3ccccc3n2c1)N1CCCNCC1` [Compound 5-1, 2-(Homopiperazine-1-carbonyl)pyrrolo[1,2-a]quinazolin-5(4H)-one hydrochloride]: 99%. Same read-out and setting: the same measure for `O=C(c1cc2[nH]c(=O)c3ccccc3n2c1)N1CCNCC1` [Compound 5-2, 2-(piperazine-1-carbonyl)pyrrolo[1,2-a]quinazolin-5(4H)-one]: 85%; for `O=C(c1cc2[nH]c(=O)c3ccccc3n2c1)N1CCCN(C(=O)C2CC2)CC1` [Compound 6-1, 2-[4-Cyclopropylcarbonylhomopiperazine-1-carbonyl]pyrrolo[1,2-a]quinazolin-5(4H)-one]: 90%.
